Experimental findings from patent publication US20070078170A1, “Process for the preparation of pioglitazone” (priority 2003, published 2007) are described below.

Usually Solubility stands for the concentration that dissolves in the medium under given conditions.

Series [1] can be described thus: Clarity of solution in acidic media on standing. The format is physicochemical.
Series [2] can be described thus: Solubility studies in USPII dissolution apparatus. In kind it is physicochemical. On the procedure: Solubility experiments were performed in USPII dissolution apparatus operated at 150 r.p.m., at 25° C., in the following media: 250 ml of 0.01N HC1-0.3M KCI (pH 2)
Procedure: 625 mg of pioglitazone hydrochloride was added in 250 ml of media and solubility was determined at given time points.

Setting [3] is: 0.01N HCl-0.3M KCl media (pH 2).
The mark [4] stands for this setting: 1.5 hrs, 625 mg in 250 ml of 0.01N HCl-0.3M KCl (pH 2), 25° C., 150 r.p.m., average of six unit data, Hydrochloride.
Setting [5] is: 5 hrs, 625 mg in 250 ml of 0.01N HCl-0.3M KCl (pH 2), 25° C., 150 r.p.m., average of six unit data, Hydrochloride.
[6] abbreviates: 20 hrs, 625 mg in 250 ml of 0.01N HCl-0.3M KCl (pH 2), 25° C., 150 r.p.m., average of six unit data, Hydrochloride.

Bounds are passed on as bounds.

Take “pioglitazone hydrochloride [listing 1 of 2 here]”: the “Standing time over which the solution remains clear” value in series [1] is not below 20 h.
As for “pioglitazone hydrochloride [listing 2 of 2 here]”, in series [1] (initially clear solution), the “Standing time after which the solution becomes turbid and the drug precipitates” value was 4 to 5 h.
On to Pioglitazone Hydrochloride [Example 5], for which the Solubility result was “more than 2.4 mg/ml” in series [2] (setting [3]); 2719 µg/mL in series [2] (30 min, 625 mg in 250 ml of 0.01N HCl-0.3M KCl (pH 2), 25° C., 150 r.p.m., average of six unit data); 2587 µg/mL in series [2] (setting [4]); 2766 µg/mL in series [2] (setting [5]); 2747 µg/mL in series [2] (setting [6]). The “Standing time without precipitation from the solution” value in series [2] (setting [3]) is “more than 5 hours”.
With Pioglitazone Hydrochloride [Example 4], in series [2] (0.01N HCl-0.3M KCl (pH 2), later time points), the “Observation of the media (turbidity, precipitation)” value was “the media starts becoming turbid and shows drug precipitation on later time points”. Besides, the results for the Solubility in series [2] (setting [4]), in series [2] (setting [5]) and in series [2] (setting [6]) were 2265 µg/mL, 722 µg/mL and 473 µg/mL, respectively.
